Measured values reported in patent US20240082273A1, “NEUROKININ INHIBITORS SUCH AS APREPITANT FOR TREATING NON SMALL CELL LUNG CARCINOMA OR BREAST CANCER WITHOUT MUTATIONS” (priority 2020, published 2024).

Key:
[1] = daily dosing from 625 to 875 mg; cited from earlier work
[2] = tested on: breast cancer cell line ER+/PR+/HER2+ (BT474); test: MTT proliferation, breast cancer cell line ER+/PR+/HER2+; type: cell-based, human; conditions: 48 hours
Experimental: All cells were cultured in wells under vendor-recommended conditions and exposed to different concentrations of aprepitant for 48 hours. In each case a group of wells of cells were used to which no treatment was applied and which were considered as controls. At 48 hours the number of cells was measured. To measure cell viability, the cytotoxicity of drugs in culture was evaluated using the 3-(4,5-Dimethyl-2-thiazolyl)-2,5-diphenyl-2H-tetrazolium bromide (MTT) reduction assay. This assay assesses cell viability through the indirect measurement of the activity of reductases that convert yellow soluble MTT into purple insoluble formazan salts. As MTT can only be reduced when these enzymes are active, the reaction is used as an indicator of the cell metabolic competence and, therefore, of viability. A variable number of cells (depending on the cell line) were seeded in 96 multi-well plates and grown during 24 hours. The following day, the culture medium was aspirated and fresh culture medium with the drug dissolved was added to the wells. After 24 hours or 48 hours cell viability was measurement by adding 10 μl of a 5 mg/ml MTT solution (M5655; Sigma-Aldrich) and 100 μl of HCl 0.01M-SDS 10% solution 4 hours later. After 24 hours, the absorbance was measured at 595 nm, using a multi-well plate reader (iMark, Bio-rad). Each condition was tested 5 times, obtaining 5 values of absorbance. All sample measurements were corrected using the blank (culture medium without cells) mean absorbance value, and normalized to positive control to determinate relative cell viability for each condition at 24 and 48 hours.

## C[C@@H](O[C@H]1OCCN(Cc2nc(=O)[nH][nH]2)[C@H]1c1ccc(F)cc1)c1cc(C(F)(F)F)cc(C(F)(F)F)c1 [Aprepitant]
[1]
  plasma trough level: 2.65 µg/mL
  plasma trough level (equivalent): 5 µM
[2]; aprepitant 0.3 μM
  Mean proliferation: 100.88
[2]; aprepitant 1 μM
  Mean proliferation: 101.83
[2]; aprepitant 3 μM
  Mean proliferation: 91.36
[2]; aprepitant 10 μM
  Mean proliferation: 85.45
[2]; aprepitant 20 μM
  Mean proliferation: 80.23
[2]; aprepitant 30 μM
  Mean proliferation: 57.51
[2]; aprepitant 40 μM
  Mean proliferation: 43.65
[2]; aprepitant 50 μM
  Mean proliferation: 23.8
[2]; aprepitant 60 μM
  Mean proliferation: 9.29
